From patent US20050026235A1 (priority 2003, published 2005)

Assays:
PLA2 = PLA2 (Apis mellifera, UniProt P00630); settings: pH 8
[1] = target: Clostridium perfringens PLC (Clostridium perfringens, UniProt P0C216)
[2] = literature values (Cevc 1993; Adrian et al. 1992); cited from earlier work
PLA2 from bee venom = PLA2 from bee venom (Apis mellifera, UniProt P00630)
Chain of PLA2 from bee venom (P00630 34-167 limits assumed): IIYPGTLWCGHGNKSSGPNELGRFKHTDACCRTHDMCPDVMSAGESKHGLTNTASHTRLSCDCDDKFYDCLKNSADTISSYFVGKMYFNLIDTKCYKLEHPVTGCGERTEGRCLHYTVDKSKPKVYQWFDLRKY

Chain of PLA2 (P00630 34-167 limits assumed): as above
Chain of Clostridium perfringens PLC (P0C216 29-398 limits assumed): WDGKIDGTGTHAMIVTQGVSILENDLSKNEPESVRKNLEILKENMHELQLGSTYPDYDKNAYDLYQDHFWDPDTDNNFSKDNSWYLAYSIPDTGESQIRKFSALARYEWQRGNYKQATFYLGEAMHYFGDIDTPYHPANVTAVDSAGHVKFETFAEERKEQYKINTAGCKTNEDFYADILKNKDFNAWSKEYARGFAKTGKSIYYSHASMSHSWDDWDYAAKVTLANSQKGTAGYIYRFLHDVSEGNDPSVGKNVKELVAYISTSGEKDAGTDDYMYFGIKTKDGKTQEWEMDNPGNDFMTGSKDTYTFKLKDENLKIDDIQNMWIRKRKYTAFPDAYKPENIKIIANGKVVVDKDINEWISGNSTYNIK

**Q.** For “1,2-dimyristoyl-sn-glycero-3-phosphoethanolamine-N-(Oregon Green 500, 5-isomer) [compound 84]”, which “time until all substrate converted to polar product” value (PLA2) is on record?
**A.** The value was “about 30 min”.

**Q.** With “1,2-dioleoyl-sn-glycero-3-phosphoethanolamine-N-(Oregon Green® 488, 5-isomer) [compound 60]” as the compound, how does the cleavage activity [1] read?
**A.** Its cleavage activity is “no activity was observed”.

**Q.** Which CMC [2] does the source give for `CCCCCCCCCCCCCC(=O)OC[C@H](COP(=O)([O-])OCC[N+](C)(C)C)OC(=O)CCCCCCCCCCCCC` [DMPC] here?
**A.** The CMC was “about 4 nM”.

**Q.** Which CMC [2] does the source give for `CCCCCCCCCCCCCC(=O)OC[C@H](COP(=O)(O)OC[C@H](N)C(=O)O)OC(=O)CCCCCCCCCCCCC` [DMPS] here?
**A.** The CMC was “about 60 nM”.

**Q.** For `CCCCCCCCCCCCCCCCOCC(COCC(F)(F)F)OP(=O)(O)OC` (centres unmarked) [inhibitor 122], which IC50 (PLA2 from bee venom) is on record?
**A.** Its IC50 is roughly 2000 nM.
